From PMC11500008, “Novel quinazolin-4-one based derivatives bearing 1,2,3-triazole and glycoside moieties as potential cytotoxic agents through dual EGFR and VEGFR-2 inhibitory activity” (Scientific Reports, 2024)
Read-outs that look alike come from different tables or passages of the source.

Columns and labels:
MCF-7 cell line = assay: MTT cytotoxicity assay, MCF-7; assay type: cell-based; conditions: Homo sapiens, read-out: IC50 (mean±SD) MCF-7
From the text: (§1) The recently incorporated quinazolinone-based targets 1–4, 6–13 underwent evaluation for their cytotoxic effects with in vitro employing MTT technique, according to the procedure that has been published[48]–[50], utilizing human fibroblast-derived BJ-1 normal cell line, and human cancer liver HepG-2, breast MCF-7, and colon HCT-116 cell lines. These cell lines were purchased from Karolinska Center, Department of Oncology and Pathology, Karolinska Institute and Hospital, Stockholm, Sweden, There were further details in the supplemental file.
(§2) The cell lines were obtained from Karolinska Center, Department of Oncology and Pathology, Karolinska Institute and Hospital, Stockholm, Sweden as follows: human liver HepG-2, breast MCF-7, and colorectal HCT-116 cancer cell lines and human fibroblast-derived BJ-1 normal cell line. Exponentially, cells were placed in 10^4 cells/ well for 24 h, and then add fresh medium which containing different concentration of the tested sample. Serial two-fold dilution of the tested sample were added using a multichannel pipette. Moreover, all cells were cultivated at 37 °C, 5% CO2 and 95% humidity. Also, incubation of control cells occurred at 37 °C. However, after incubation for 24 h different concentrations of sample (25, 12.5, 6.25 and 3.125 µM) were added and continued the incubation for 48 h, then, add the crystal violet solution 1% to each well for 0.5 h to examine viable cells. Rinse the wells using water until no stain. After that, add 30% glacial acetic acid to all wells with shaking plates on Microplate reader (TECAN, Inc.) to measure the absorbance, using a test wavelength of 490 nm. Besides, compare the treated samples with the control cell. The cytotoxicity was estimated by IC50 in (μM), the concentration that inhibits 50% of growth of cancer cell.

VEGFR-2 = VEGFR-2 (Homo sapiens, UniProt P35968); assay: In vitro VEGFR-2 inhibition assay (ELISA); conditions: read-out: IC50 (mean ± SD) VEGFR-2; average of three values
VEGFR-2, sequence (P35968 20-1356): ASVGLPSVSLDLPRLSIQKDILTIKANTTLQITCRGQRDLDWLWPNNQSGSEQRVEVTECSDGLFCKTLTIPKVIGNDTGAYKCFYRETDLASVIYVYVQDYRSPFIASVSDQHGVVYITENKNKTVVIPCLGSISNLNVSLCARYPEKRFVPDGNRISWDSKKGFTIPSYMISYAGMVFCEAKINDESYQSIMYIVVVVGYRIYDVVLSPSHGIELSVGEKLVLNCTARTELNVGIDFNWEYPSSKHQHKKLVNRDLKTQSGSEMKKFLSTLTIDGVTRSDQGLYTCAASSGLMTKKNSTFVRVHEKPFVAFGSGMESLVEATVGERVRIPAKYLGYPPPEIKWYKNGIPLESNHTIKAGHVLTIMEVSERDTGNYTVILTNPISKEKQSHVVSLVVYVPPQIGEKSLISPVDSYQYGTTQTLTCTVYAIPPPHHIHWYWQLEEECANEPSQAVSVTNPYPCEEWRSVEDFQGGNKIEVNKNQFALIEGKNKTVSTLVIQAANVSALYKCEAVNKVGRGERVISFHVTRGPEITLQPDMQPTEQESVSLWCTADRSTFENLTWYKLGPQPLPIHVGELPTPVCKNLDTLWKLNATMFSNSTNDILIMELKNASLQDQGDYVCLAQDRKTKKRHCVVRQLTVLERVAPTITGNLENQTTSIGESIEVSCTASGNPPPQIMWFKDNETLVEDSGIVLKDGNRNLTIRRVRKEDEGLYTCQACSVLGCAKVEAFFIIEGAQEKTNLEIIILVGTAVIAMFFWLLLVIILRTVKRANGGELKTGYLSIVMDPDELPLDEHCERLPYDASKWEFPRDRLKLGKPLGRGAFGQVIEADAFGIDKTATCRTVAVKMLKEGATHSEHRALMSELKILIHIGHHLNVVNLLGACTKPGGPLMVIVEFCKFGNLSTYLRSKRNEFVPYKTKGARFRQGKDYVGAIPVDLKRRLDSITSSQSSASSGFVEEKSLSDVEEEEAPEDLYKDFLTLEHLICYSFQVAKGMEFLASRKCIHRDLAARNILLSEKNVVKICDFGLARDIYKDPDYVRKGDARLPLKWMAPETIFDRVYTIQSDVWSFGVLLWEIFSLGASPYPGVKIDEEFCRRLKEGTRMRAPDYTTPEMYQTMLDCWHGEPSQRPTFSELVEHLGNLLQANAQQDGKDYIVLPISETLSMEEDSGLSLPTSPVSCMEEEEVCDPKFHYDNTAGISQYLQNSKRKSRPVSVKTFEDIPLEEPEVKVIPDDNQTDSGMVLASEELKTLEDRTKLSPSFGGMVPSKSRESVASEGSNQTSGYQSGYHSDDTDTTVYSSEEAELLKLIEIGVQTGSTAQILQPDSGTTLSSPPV

HCT-116 cell line = assay: MTT cytotoxicity assay, HCT-116; assay type: cell-based; conditions: Homo sapiens, read-out: IC50 (mean±SD) HCT-116
From the text: as §1, §2

EGFR = EGFR (Homo sapiens, UniProt P00533); assay: In vitro EGFR inhibition assay (Kinase-Glo luminescence)
EGFR, sequence (P00533 25-1210): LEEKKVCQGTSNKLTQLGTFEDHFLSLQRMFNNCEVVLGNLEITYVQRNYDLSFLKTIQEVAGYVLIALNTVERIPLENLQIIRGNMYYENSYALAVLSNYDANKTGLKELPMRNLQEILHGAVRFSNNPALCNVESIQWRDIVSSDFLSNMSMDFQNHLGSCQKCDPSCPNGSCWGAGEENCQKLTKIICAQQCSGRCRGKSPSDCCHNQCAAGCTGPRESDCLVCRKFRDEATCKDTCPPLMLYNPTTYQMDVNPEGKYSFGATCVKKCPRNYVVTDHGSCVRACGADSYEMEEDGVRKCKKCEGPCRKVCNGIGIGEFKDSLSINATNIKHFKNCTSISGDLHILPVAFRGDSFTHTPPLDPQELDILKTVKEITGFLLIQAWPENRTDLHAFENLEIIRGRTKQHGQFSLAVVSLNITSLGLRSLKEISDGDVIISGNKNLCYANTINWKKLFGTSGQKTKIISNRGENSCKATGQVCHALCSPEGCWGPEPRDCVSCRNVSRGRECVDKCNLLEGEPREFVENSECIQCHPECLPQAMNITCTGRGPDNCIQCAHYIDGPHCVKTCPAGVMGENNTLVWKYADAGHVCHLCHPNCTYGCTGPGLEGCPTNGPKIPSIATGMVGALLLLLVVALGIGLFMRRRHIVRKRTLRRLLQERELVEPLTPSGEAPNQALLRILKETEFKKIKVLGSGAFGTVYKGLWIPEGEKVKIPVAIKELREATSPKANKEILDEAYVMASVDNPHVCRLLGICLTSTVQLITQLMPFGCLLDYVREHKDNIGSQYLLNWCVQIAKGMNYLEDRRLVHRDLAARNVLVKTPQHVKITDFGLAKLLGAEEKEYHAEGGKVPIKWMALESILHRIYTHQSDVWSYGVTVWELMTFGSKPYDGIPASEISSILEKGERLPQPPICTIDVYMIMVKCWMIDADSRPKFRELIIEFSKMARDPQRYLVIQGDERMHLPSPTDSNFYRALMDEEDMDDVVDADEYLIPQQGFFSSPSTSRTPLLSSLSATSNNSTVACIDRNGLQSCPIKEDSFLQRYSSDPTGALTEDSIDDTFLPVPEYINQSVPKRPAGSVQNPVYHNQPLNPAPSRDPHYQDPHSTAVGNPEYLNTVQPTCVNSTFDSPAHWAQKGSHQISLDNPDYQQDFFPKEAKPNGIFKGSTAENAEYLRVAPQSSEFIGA

HepG-2 cell line = assay: MTT cytotoxicity assay, HepG-2; assay type: cell-based; conditions: Homo sapiens, read-out: IC50 (mean±SD) HepG-2
From the text: as §1, §2

BJ-1 normal cell line = assay: MTT cytotoxicity assay, normal BJ-1 fibroblasts (safety profile); assay type: cell-based; conditions: Homo sapiens, read-out: IC50 (mean±SD) BJ-1
Description: […]. The safety profiles of all derivatives were assessed through cytotoxic evaluation using human fibroblast-derived BJ-1 normal cell lines. […].
as §1, §2

[1] = MCF7, MCF-7 breast cancer cells, 48 h incubation, mean of three values
[2] = HCT-116 colorectal cancer cells, 48 h incubation, mean of three values
[3] = HepG2, HepG-2 liver cancer cells, 48 h incubation, mean of three values
[4] = BJ-1 normal fibroblast-derived cells, 48 h incubation, mean of three values

| SMILES | IC50 (MCF-7 cell line; [1]) [µM] | IC50 (VEGFR-2) [µM] | IC50 (HCT-116 cell line; [2]) [µM] | IC50 (EGFR) [µM] | melting point [°C] | IC50 (HepG-2 cell line; [3]) [µM] | IC50 (BJ-1 normal cell line; [4]) [µM] | IC50 (MCF-7 cell line; MCF7, 48 h) [µM] | IC50 (HCT-116 cell line; HCT-116, 48 h) [µM] | IC50 (HepG-2 cell line; HepG2, 48 h) [µM] | IC50 (BJ-1 normal cell line; Fibroblast, 48 h) [µM] |
| --- | --- | --- | --- | --- | --- | --- | --- | --- | --- | --- | --- |
| CC(=O)O[C@@H]1[C@@H](OC(C)=O)[C@H](OC(C)=O)CO[C@H]1n1cc(CSc2nc3ccccc3c(=O)n2C)nn1 [Compound 9, 2-(((1-[2,3,4-tri-O-acetyl-β-D-xylopyranosyl]-1 H-1,2,3-triazol-4-yl)methyl)thio)-3-methylquinazolin-4(3 H)-one] | 12.6 ± 1.3 | 30.6 ± 0.32 | 3.2 ± 0.2 | 23.05 ± 0.08 | 146 to 148 | 22.9 ± 2.3 | > 25 | – | – | – | – |
| COc1cccc2c1C(=O)c1c(O)c3c(c(O)c1C2=O)C[C@@](O)(C(=O)CO)C[C@@H]3O[C@H]1C[C@H](N)[C@H](O)[C@H](C)O1 [Doxorubicin, reference compound] | 5.6 ± 0.3 | – | 6.5 ± 0.5 | – | – | 4.8 ± 0.5 | 32.1 ± 3.1 | – | – | – | – |
| CC(=O)OC[C@H]1O[C@@H](n2cc(CSc3nc4ccccc4c(=O)n3-c3ccccc3)nn2)[C@H](OC(C)=O)[C@@H](OC(C)=O)[C@H]1OC(C)=O [Compound 6, 2-(((1-[2,3,4,6-Tetra-O-acetyl-β-D-galactopyranosyl]-1 H-1,2,3-triazol-4-yl)methyl)thio)-3-phenylquinazolin-4(3 H)-one] | 13.4 ± 1.2 | 32.25 ± 0.25 | 3.2 ± 0.1 | 18.63 ± 0.14 | 90 to 92 | 19.2 ± 2.1 | > 25 | – | – | – | – |
| Cn1c(S)nc2ccccc2c1=O [Compound 2] | 14.9 ± 1.3 | – | 16.1 ± 1.3 | – | – | 24.1 ± 3.1 | > 25 | – | – | – | – |
| C#CCSc1nc2ccccc2c(=O)n1C [Compound 4, 3-methyl-2-(prop-2-yn-1-ylthio)quinazolin-4(3 H)-one] | 14.6 ± 1.1 | – | 13.5 ± 1.1 | – | 163 to 165 | 21.9 ± 2.7 | > 25 | – | – | – | – |
| CC(=O)O[C@@H]1[C@@H](OC(C)=O)[C@H](OC(C)=O)CO[C@H]1n1cc(CSc2nc3ccccc3c(=O)n2-c2ccccc2)nn1 [Compound 8, 2-(((1-[2,3,4-tri-O-acetyl-β-D-xylopyranosyl]-1 H-1,2,3-triazol-4-yl)methyl)thio)-3-phenylquinazolin-4(3 H)-one] | 14 ± 1.2 | 28.4 ± 0.5 | < 3.12 | 21.38 ± 0.15 | 210 to 212 | 21.4 ± 3.1 | > 25 | – | – | – | – |
| Cn1c(SCc2cn([C@@H]3O[C@H](CO)[C@H](O)[C@H](O)[C@H]3O)nn2)nc2ccccc2c1=O [Compound 11, 2-(((1-[β-D-Galactopyranosyl]-1 H-1,2,3-triazol-4-yl)methyl)thio)-3-methylquinazolin-4(3 H)-one] | 5.7 ± 0.2 | 22.86 ± 0.13 | 5.9 ± 0.1 | 0.35 ± 0.11 | – | 17.8 ± 2.1 | > 25 | – | – | – | – |
| CC(=O)OC[C@H]1O[C@@H](n2cc(CSc3nc4ccccc4c(=O)n3C)nn2)[C@H](OC(C)=O)[C@@H](OC(C)=O)[C@H]1OC(C)=O [Compound 7, 2-(((1-[2,3,4,6-Tetra-O-acetyl-β-D-galactopyranosyl]-1 H-1,2,3-triazol-4-yl)methyl)thio)-3-methylquinazolin-4(3 H)-one] | 17.3 ± 0.5 | 36.33 ± 0.17 | 5.5 ± 0.1 | 17.94 ± 0.1 | – | 21.5 ± 2.5 | 22.9 ± 3.2 | – | – | – | – |
| C#Cc1cccc(Nc2ncnc3cc(OCCOC)c(OCCOC)cc23)c1 [Erlotinib, reference compound] | – | – | – | – | – | – | – | 4.3 ± 0.1 | 7.3 ± 0.2 | 7.8 ± 0.2 | 58.3 ± 1.4 |
| C#CCSc1nc2ccccc2c(=O)n1-c1ccccc1 [Compound 3] | 15.9 ± 1.3 | – | 14.8 ± 1.6 | – | – | > 25 | > 25 | – | – | – | – |
| O=c1c2ccccc2nc(SCc2cn([C@@H]3OC[C@@H](O)[C@H](O)[C@H]3O)nn2)n1-c1ccccc1 [Compound 12, 2-(((1-[β-D-Xylopyranosyl]-1 H-1,2,3-triazol-4-yl)methyl)thio)-3-phenylquinazolin-4(3 H)-one] | 6.9 ± 0.3 | 13.63 ± 0.08 | 3 ± 0.3 | 15.88 ± 0.14 | – | 15.1 ± 1.9 | 24.7 ± 2.4 | – | – | – | – |
| O=c1c2ccccc2nc(SCc2cn([C@@H]3O[C@H](CO)[C@H](O)[C@H](O)[C@H]3O)nn2)n1-c1ccccc1 [Compound 10, 2-(((1-[β-D-Galactopyranosyl]-1 H-1,2,3-triazol-4-yl)methyl)thio)-3-phenylquinazolin-4(3 H)-one] | 8.1 ± 0.6 | 22.33 ± 0.1 | 6.4 ± 0.4 | 16.75 ± 0.05 | – | 17.1 ± 1.1 | 23.5 ± 3.1 | – | – | – | – |
| O=c1c2ccccc2nc(S)n1-c1ccccc1 [Compound 1] | 16.1 ± 1.1 | – | 18.6 ± 1.5 | – | – | 21.9 ± 1.9 | > 25 | – | – | – | – |
